Test results reported in PMC3460729, “Innate immune properties of selected human neuropeptides against Moraxella catarrhalis and nontypeable Haemophilus influenzae” (BMC Immunology, 2012).
Marks after values point to notes of the source that are not given here.

Legend:
[1] = system: human PMNs stimulated with M. catarrhalis ATCC 25238; test: M. catarrhalis-stimulated ROS generation by PMNs, luminol-dependent chemiluminescence; type: cell-based; settings: 10^−8 M NP, nonopsonized M. catarrhalis; mean ± SD, n = 5-6 donors
Method: (§1) Polymorphonuclear leukocytes (PMNs) from healthy young adult volunteers were isolated from venous blood samples anticoagulated with Lithium-heparin (7.5 ml) by ficoll (Aqua-Med, Poland) density gradient centrifugation (2000 rpm/30 min), followed by hypotonic lysis of erythrocytes with a lysing buffer (0.83% NH4Cl, 0.1% KHCO3, EDTA, pH 7.4). After two washes (1400 rpm/10 min) in PBS, PMNs were resuspended to the final concentration of […] cells/ml in phagocytic buffer: HBSS with Ca^++ and Mg^++ supplemented with 1% HiFBS. The purity of granulocyte suspensions was checked using 15 μg/ml of acridine orange. […] Isolated PMNs were kept for 30 min at 37°C and 5% CO2 until used.
Reactive oxygen species (ROS) formation by PMNs was measured using luminol-dependent chemiluminescence assay (CL) in white flat-bottom 96-well microplates (NUNC, Denmark). The reaction mixture of total volume 200 μl in each well contained: 100 μl of PMN suspension in HBSS–Ca^++Mg^++ (10^5 cells/well), 40 μl of luminol (50 μM/well), 40 μl of fMLP (0.2 μM/well), 20 μl of particular NP (in the range 10^−12–10^−8 M/well). […] The maximal value of CL response curve was expressed as peak height (PHCL) for fMLP stimulant. In other cases the area under chemiluminescence curve (AUCCL) was calculated. […] Results were expressed as mean ± SD.

human PMNs [2] = test: fMLF-induced ROS generation by PMNs, luminol-dependent chemiluminescence; type: cell-based; settings: for ROS release [% of control]: 0.2 μM fMLF, peak height PHCL, mean of three independent experiments
Method: as §1
(§2) Reactive oxygen species (ROS) formation by PMNs was measured using luminol-dependent chemiluminescence assay (CL) in white flat-bottom 96-well microplates (NUNC, Denmark). The reaction mixture of total volume 200 μl in each well contained: 100 μl of PMN suspension in HBSS–Ca^++Mg^++ (10^5 cells/well), 40 μl of luminol (50 μM/well), 40 μl of fMLP (0.2 μM/well), 20 μl of particular NP (in the range 10^−12–10^−8 M/well). In other experiments, the respiratory burst was triggered by phagocytosis of 40 μl heat killed (56°C/30 min) M. catarrhalis ATCC 25238 or H. influenzae ATCC 49247 at concentration of ½ of OD600 = 1 or OD600 = 1, respectively. […] The PMA stimulus at 0.1 μM final concentration was used as positive control of the relevant oxidative stress. The CL kinetics was measured at constant 37°C temperature using luminometer (Microlumat, LB96P, Berthold) and recorded as relative light units (RLU). Measuring conditions for fMLP were: interval (46 s), run time (up to 30 min). The conditions for bacterial and PMA stimulation were: interval (83 s), run time (up to 60 min). The maximal value of CL response curve was expressed as peak height (PHCL) for fMLP stimulant. In other cases the area under chemiluminescence curve (AUCCL) was calculated. Each sample was run in triplicate and the values were averaged. […] Results were expressed as mean ± SD.

E. coli ML-35p = test: ONPG-mediated β-galactosidase membrane permeability assay; type: cell-based, Escherichia coli; settings: for time of maximal OD increase (ONPG influx): 100 μM neuropeptide; for ID50 (inducible dose) for intracellular influx of ONPG: dose causing 50% increase in OD405 in reference to chloroform-inducible maximum at 45 min, 10^6 CFU/ml, NaPB pH 7.4, 3 mM ONPG, 37°C, triplicate
Method: To measure the activity of neuropeptides in permeabilization of bacterial membrane, the ONPG-mediated β-galactosidase microplate assay was used. Permeabilization was measured using E. coli ML-35 with constitutive cytoplasmic β-galactosidase activity as previously described. Briefly, 18 h E. coli ML-35p in TSB was recultivated in TSB until mid-log phase (OD600 = 0.5). Flasks were put on ice for 20 min, and 2 ml of bacterial suspensions were transferred to Eppendorf tubes, washed twice with 10 mM sodium phosphate NaPB (pH 7.4) and suspended in NaPB to OD600 = 0.5. […] Microplates were incubated at 37°C for 1.5 h and optical densities were measured every 15 minutes at λ=405 nm (spectrophotometer Opsys MR Dynex Technologist). All the assays were performed in triplicate. Two positive controls were used: polymyxin B at the final concentration of 1 μg/ml as an established model of peptide permeabilizing action, and 20% chloroform (v/v). […] The molar concentration of NP that caused such increase was extrapolated from a linear portion of NP titration curve. Negative controls constituted bacteria incubated with NaPB and ONPG but without neuropeptides.

M. catarrhalis Mc5, Mc6 = test: Time kill assay from 0 to 1.5 h; type: cell-based, Moraxella catarrhalis; settings: 100 μM
Method: (§3) For the time kill assay from 0 to 1.5 h, overnight cultures of Mc and NTHi were inoculated into new medium and incubated under the relevant conditions until early log-phase (OD600 = 0.25–0.3). The bacteria were diluted in 10 mM sodium phosphate buffer, NaPB, (pH 7.4) containing 1% (w/v) BHI to obtain ~2 x 10^6 CFU/ml. […] After each time of incubation the suspensions were 10-fold serially diluted with 10 mM NaPB-1% BHI and 20 μl aliquots were plated in triplicate on BHI (M. catarrhalis) or HAEM (H. influenzae) agar plates. The plates were incubated overnight at 37°C in 5% CO2 conditions. Simultaneously, the incubation of bacteria in the presence of an appropriate diluent was included for positive control of bacterial growth. The colony counts and CFU/ml were calculated next day. The bactericidal activity of neuropeptides was expressed as survival ratios determined as the numbers of CFU after neuropeptide incubation divided by the numbers of CFU estimated from a control plate (time 0). All antimicrobial assays were performed at least two times in triplicate.

[3] = system: nontypeable H. influenzae NTHi3, NTHi6; test: Time kill assay from 0 to 1.5 h; type: cell-based, Haemophilus influenzae; settings: 100 μM, clinical isolates of H. influenzae
Method: as §3

human PMNs [4] = test: PMA-induced chemiluminescence in PMNs; type: cell-based; settings: 0.1 μM PMA, 0 to 60 min; five independent experiments in triplicate, 5 donors
Method: as §2, with “SD. […]” for “SD.”

Row | SMILES | increase of mean AUCCL [1] | ROS release [% of control] (human PMNs [2]; 10^-8 M NP) | ROS release [% of control] (human PMNs [2]; 10^-10 M NP) | ROS release [% of control] (human PMNs [2]; 10^-12 M NP) | activation of respiratory burst of PMNs (human PMNs [2]; neuropeptide alone, without stimulus) | time of maximal OD increase (ONPG influx) (E. coli ML-35p) | ID50 (inducible dose) for intracellular influx of ONPG (E. coli ML-35p) | culture survived (M. catarrhalis Mc5, Mc6; Mc5 and Mc6, 0.5 h) | type of antibacterial activity (M. catarrhalis Mc5, Mc6; both Mc strains) | type of antibacterial activity [3] | log10 of mean AUCCL ± SEM (human PMNs [4])
1 | CSCC[C@H](NC(=O)[C@H](CC(C)C)NC(=O)CNC(=O)[C@H](Cc1ccccc1)NC(=O)[C@H](Cc1ccccc1)NC(=O)[C@H](CCC(N)=O)NC(=O)[C@H](CCC(N)=O)NC(=O)[C@@H]1CCCN1C(=O)[C@H](CCCCN)NC(=O)[C@@H]1CCCN1C(=O)[C@@H](N)CCCNC(=N)N)C(N)=O [SP, substance P] | 14.2 ± 3.4% | 179.18^a % of control | 160.36^a % of control | 140.83^a % of control | did not activate | 90 min | 29.2 µM | ~100% |  |  | 
2 | C[C@H](N)C(=O)NCC(=O)N[C@H]1CSSC[C@@H](C(=O)O)NC(=O)[C@H](CO)NC(=O)[C@H]([C@@H](C)O)NC(=O)[C@H](Cc2ccccc2)NC(=O)[C@H]([C@@H](C)O)NC(=O)[C@H](CCCCN)NC(=O)[C@H](Cc2c[nH]c3ccccc23)NC(=O)[C@H](Cc2ccccc2)NC(=O)[C@H](Cc2ccccc2)NC(=O)[C@H](CC(N)=O)NC(=O)[C@H](CCCCN)NC1=O [SOM, somatostatin] |  |  |  |  |  | 90 min | 104.1 µM |  | bacteriostatic | bacteriostatic | 
3 | CCCCCCCCCCCCCC(=O)O[C@@H]1[C@@H](C)[C@@]2(O)[C@@H](C=C(CO)C[C@]3(O)C(=O)C(C)=C[C@@H]23)[C@@H]2C(C)(C)[C@]12OC(C)=O [PMA, phorbol myristate acetate] |  |  |  |  |  |  |  |  |  |  | 6.05 ± 4.32
